According to patent US4569915A, “P. obtusus strain” (Cetus Corporation, priority 1984, dated 1986):

Columns and labels:
P. obtusus P2O = assay: Relative activities of P. obtusus P2O on pyranose substrates; format: biochemical; conditions: about 1% (w/v) substrate; D-glucose = 100
Experimental: The P2O enzyme preparation from Example II was purified further using DEAE chromatography in 30 mM TRIS-HCl, pH 8.5, containing 2 mM EDTA and 10 ug/ml PMSF. The sample was eluted from a 5×16 cm column using a gradient of 0-300 mM NaCl. P2O activity was monitored using the orthodianisidine colorometric assay for the peroxide co-product, essentially as described by Ruelius et al., Biochim et Biophys. Acta 167, 493-500 (1968). P2O activity eluted at about 50 mM NaCl. Fractions containing the peak activity were pooled and concentrated to 0.5 ml by ultrafiltration using Amicon filters obtained from Amicon Corp. (Danvers, MA). Biogel P300 was obtained from Biorad Laboratories (Richmond, CA). The sample was further purified by molecular sieve chromatography using a 1.5×95 cm Biogel P300 column in 100 mM sodium phosphate, pH 7 buffer. The P2O activity eluted at a sharp peak corresponding to an apparent native molecular weight of about 290,000 daltons.
The enzyme appears to contain one covalently bound flavin molecule per subunit (detectable as UV-fluorescence in the 68,000 dalton SDS-PAGE band), and has absorption maxima at 276, 357 and 456 nm. The enzyme has a sedimentation coefficient of about 11.4, as determined by sucrose gradient ultracentrifugation. The relative activities of the enzyme, on D-glucose, L-sorbose, D-xylose, and D-gluconolactone are 100: 80: 48: 12, respectively, at about 1% (w/v) substrate concentration. As noted above with respect to FIG. 2, the enzyme has a broad pH optimum of between about 4.5 and 5.5.

L. betulinus P2O = assay: Relative activities of L. betulinus P2O on pyranose substrates; format: biochemical; conditions: 20 mM substrate; D-glucose = 100
Experimental: The resulting clear yellow supernatant was further purified using DEAE chromatography in 30 mM TRIS-HCl, pH 8.5, and eluted from the 5×16 cm column using a 0-300 mM NaCl gradient. The protein eluted at about 75 mM NaCl. Fractions containing the peak of P2O activity were pooled and concentrated to 0.5 ml by Amicon PM30 ultrafiltration, and then fractionated, according to native molecular weight, using a 1.5×95 cm Biogel P300 column. The column was run at a flow rate of 0.1 ml per minute, using 100 mM sodium phosphate, pH 7.0. The protein eluted in a fraction corresponding to an apparent native molecular weight of about 300,000 daltons. […] Based on the molecular weight data, the protein appears to be a homotetramer.
The enzyme contains a covalently attached flavin on each subunit, and has absorption maxima at 275, 360, and 450 nm. The relative activities of the purified enzyme on the pyranose substrates D-glucose, L-sorbose, D-xylose and delta-D-gluconolactone are 100: 43: 43: 26, respectively, at 20 mM substrate concentration. The enzyme has a broad pH optimum between about 5 and 6.

C. versicolor P2O = target: T1, C. versicolor P2O (Trametes versicolor, UniProt P79076); assay: Relative activities of C. versicolor P2O on pyranose substrates; format: biochemical; conditions: 1% (w/v) substrate; D-glucose = 100
T1 construct: A single band having a molecular weight of about 65,000 was observed when the enzyme was analyzed by SDS-PAGE; made in house; host or cells: C. versicolor itself (native producer; high-producer culture selected from NRRL 15152 / CMCC 0748)
Experimental: The enzyme was applied to a 2.6×40 cm DEAE column, washed, and eluted using a 0-300 mM NaCl gradient. The P2O elutes at about 220 mM. Portions of each fraction were assayed for P2O activity, by monitoring peroxide generation conventionally. Protein concentration was also determined by a conventional method. The fractions containing P2O activity were pooled and concentrated by ultrafiltration with an Amicon PM10 filter obtained from Amicon Corp. Peak fractions were dialyzed into 30 mM sodium acetate (pH 5.5), adjusted to 1.5M NaCl and loaded onto a phenylsepharose column. The P2O was eluted with a 0-1.5M NaCl gradient in 50 mM sodium acetate, pH 5.5. The enzyme eluted at about 1.1M NaCl. Fractions containing the peak activity were pooled and concentrated to 0.5 ml by Amicon PM30 ultrafiltration and sized according to native molecular weight using a 1.5×95 cm Biogel P300 column. Elution was at 0.1 ml/minute with 100 mM sodium phosphate, pH 7.0. Using known molecular weight markers in the column, the enzyme's apparent native molecular weight was calculated to be about 130,000 daltons. A single band having a molecular weight of about 65,000 was observed when the enzyme was analyzed by SDS-PAGE. The enzyme thus appears to be a homodimer. The enzyme was judged to be about 95% pure, based on the staining intensity of protein bands in SDS-PAGE.
The relative activities of the enzyme on the substrates D-glucose, L-sorbose, D-xylose and delta-D-gluconolactone are 100: 74: 41: 6, respectively, at 1% (w/v) substrate concentration. The enzyme has a pH optimum of about 5.0.

[1] = Ericsson et al. and Lindberg et al.; cited from earlier work
[2] = Glucosone breakdown on control of reaction pH by base addition; format: physicochemical; conditions: NaOH versus buffer such as 1M sodium bicarbonate or 1M TRIS-HCl
Experimental: Attempts to control reaction pH by the periodic addition of base have not been entirely successful. […] Therefore, in order to reduce glucosone breakdown, the base must be added in a manner which minimizes local regions of high pH in the solution. […] Introduction of the buffer with rapid mixing further reduces glucosone breakdown, presumably by reducing locally-elevated pH levels which occur when the buffer is added. It was noted above that even pH's in the range of 7.0 can lead to relatively rapid nonenzymatic glucosone breakdown. Ideally therefore, where high purity and yield are desired, one would like to avoid adding base to the reaction to offset the buildup of acidic by-products.

[3] = Nonenzymatic breakdown of glucosone (UV scan); format: physicochemical; conditions: 0.5% solution
From the text: Secondly, studies indicate that pure glucosone undergoes relatively rapid, nonenzymatic breakdown above a pH of about 7.0. In one experiment, a 0.5% solution of highly purified glucosone (prepared by enzymatic conversion of glucose by a purified P. obtusus P2O enzyme at pH 4.4) was brought to pH 7.0 in a buffered solution. Immediately thereafter, the solution was scanned spectrophotometrically in the UV range between 200 and 350 nm, at one minute intervals.

Compound	relative activity of P. obtusus P2O on substrate (P. obtusus P2O)	relative activity of L. betulinus P2O on substrate (L. betulinus P2O)	relative activity of C. versicolor P2O on substrate (C. versicolor P2O)	stability under alkaline conditions [1]	glucosone breakdown with periodic NaOH addition [2]	310 nm peak (nonenzymatic breakdown) ([3]; pH 6.0, several minutes)	increase of 310 nm peak (nonenzymatic breakdown) ([3]; pH 7.0, five minute period)
OC[C@H]1OC(O)[C@H](O)[C@@H](O)[C@@H]1O (stereo partly drawn) [D-glucose]	100	100	100				
O=C1O[C@H](CO)[C@@H](O)[C@H](O)[C@H]1O [delta-D-gluconolactone]	12	26	6				
O=C(CO)[C@@H](O)[C@H](O)[C@@H](O)CO [L-sorbose]	80	43	74				
O=CC(=O)[C@@H](O)[C@H](O)[C@H](O)CO [glucosone, D-arabino-2-hexosulose]				breaks down under alkaline conditions	more glucosone breakdown	no initial peak at 310 nm was observed nor did one form	increasing several-fold
OC1OC[C@@H](O)[C@H](O)[C@H]1O (stereo partly drawn) [D-xylose]	48	43	41				
